Data from the OligoGym collection.
After the bases stand the sugars from the 5' end (letter, count) and the backbone: PS all phosphorothioate, else s phosphorothioate and o phosphodiester by linkage. Methylation of C is not given here. e = 2'-O-(2-methoxyethyl) (MOE); k = constrained ethyl (cEt); d = 2'-deoxy (DNA); m = 2'-O-methyl

Molecular target: HSD17B13
Conditions: ASO, HepaRG

Row | Sequence | target mRNA inhibition (1 µM) [%] | also measured
1 | TGAGGTAAGGAATCCC (sugars k3 d10 k3, PS) | 2 | –
2 | TGAGGTTTTGATACCA (sugars k3 d10 k3, PS) | 63 | –
3 | TGAGTAAACGACTCTG (sugars k3 d10 k3, PS) | 23 | –
4 | TGATATACGATGGAAC (sugars k3 d10 k3, PS) | 13 | –
5 | TGATGGTGATCAGAAG (sugars k3 d10 k3, PS) | 0 | –
6 | TGATGTAGTGGGAGTC (sugars k3 d9 k3 e1, PS) | – | target mRNA inhibition (0.02 µM): 5%; target mRNA inhibition (0.078 µM): 0%; target mRNA inhibition (0.313 µM): 36%; target mRNA inhibition (1.25 µM): 62%; target mRNA inhibition (5 µM): 74%
7 | TGATGTAGTGGGAGTC (sugars k3 d10 k3, PS) | 65 | –
8 | TGATTACAGCATCAAG (sugars k3 d10 k3, PS) | 69 | –
9 | TGATTCGAAACTATTC (sugars k3 d10 k3, PS) | 29 | –
10 | TGATTGAGTTCTCCAC (sugars k3 d9 k3 e1, PS) | 30 | –
11 | TGATTGAGTTCTCCAC (sugars kkdddddddddkekek, PS) | 32 | –
12 | TGCATCTTAAGATACC (sugars k3 d9 k3 e1, PS) | 37 | –
13 | TGCAUCTTAAGATACC (sugars k3 d1 m1 d8 k3, PS) | 51 | –
14 | TGCCAGATTGCACAAA (sugars k3 d10 k3, PS) | 54 | –
15 | TGCCAGGGAATGCTCA (sugars k3 d10 k3, PS) | 23 | –
16 | TGCGAGAAATCTAAGA (sugars k3 d10 k3, PS) | 50 | –
17 | TGCTAAGTAGTAATTC (sugars k3 d10 k3, PS) | 32 | –
18 | TGCTAGTGCCAAACCA (sugars k3 d9 k3 e1, PS) | 73 | target mRNA inhibition (0.02 µM): 8%; target mRNA inhibition (0.078 µM): 16%; target mRNA inhibition (0.313 µM): 38%; target mRNA inhibition (1.25 µM): 54%; target mRNA inhibition (5 µM): 71%
19 | TGCTCCATAATAATAG (sugars k3 d10 k3, PS) | 35 | –

Row | Sequence | target mRNA inhibition (1 µM) [%] | also measured
20 | TGCTGAGAAGATCGGC (sugars k3 d10 k3, PS) | 7 | –
21 | TGCTGCTAGTGCCAAA (sugars k3 d1 m1 d8 k3, PS) | 50 | –
22 | TGGAATGCTACTTGAA (sugars k3 d1 m1 d8 k3, PS) | 79 | target mRNA inhibition (0.02 µM): 13%; target mRNA inhibition (0.078 µM): 27%; target mRNA inhibition (0.313 µM): 35%; target mRNA inhibition (1.25 µM): 66%; target mRNA inhibition (5 µM): 91%
23 | TGGAATGCTACTTGAA (sugars kkdddddddddkekek, PS) | 68 | –
24 | TGGAGGAAAGCTTCAA (sugars k3 d10 k3, PS) | 10 | –
25 | TGGCATGGCTACAGAT (sugars kkdddddddddkekek, PS) | 58 | –
26 | TGGCCGCACACTGAAG (sugars k3 d10 k3, PS) | 0 | –
27 | TGGCCTTACCAGAATT (sugars k3 d10 k3, PS) | 46 | –
28 | TGGTAACGGTGATCAA (sugars k3 d10 k3, PS) | 74 | target mRNA inhibition (0.02 µM): 14%; target mRNA inhibition (0.078 µM): 28%; target mRNA inhibition (0.313 µM): 58%; target mRNA inhibition (1.25 µM): 76%; target mRNA inhibition (5 µM): 88%
29 | TGGTAATCTCTTCATC (sugars k3 d10 k3, PS) | 23 | –
30 | TGGTGGACTTCAGAGT (sugars k3 d10 k3, PS) | 17 | –
31 | TGTAAAGGCTGGGTGA (sugars k3 d10 k3, PS) | 26 | –
32 | TGTAAGCTGAGAGTTC (sugars k3 d10 k3, PS) | 45 | –
33 | TGTCAGAGACTCTGTG (sugars k3 d10 k3, PS) | 39 | –
34 | TGTCCACCTTTAAATG (sugars k3 d1 m1 d8 k3, PS) | 17 | –
35 | TGTCCACCTTTAAATG (sugars kkdddddddddkekek, PS) | 27 | –
36 | TGTCCAGAAGTATGTG (sugars k3 d10 k3, PS) | 0 | –
37 | TGTCTAAACATCTCTG (sugars k3 d9 k3 e1, PS) | 69 | –
